Reference: US20250353891A1 (MEDIMMUNE LIMITED, priority 2022, published 2025)
Starred links: 1 amine or outer side, 2 acyl side, 3 side chain; linkers in the order of their positions; H or OH if unused. Non-standard residues stand in square brackets, D forms with d. Residues, ends and D or L forms follow the SMILES beside them. Groups on a side chain read outwards from the residue. *: point of attachment. C18 diacid = O=C(O)CCCCCCCCCCCCCCCCC(=O)*; γGlu = O=C(O)[C@H](CCC(=O)[*:2])N[*:1]; αMeF = C[C@](N)(Cc1ccccc1)C(=O)O; Aib = CC(C)(N)C(=O)O

Tests used:
[1] = molecular target: human GLP-1 receptor (hGLP-1R) (Homo sapiens, UniProt P43220); test: cAMP production (HTRF) in CHO cells expressing hGLP-1R; format: cell-based; set-up: expressed in transfected cells
human GLP-1 receptor (hGLP-1R), sequence (P43220 24-463): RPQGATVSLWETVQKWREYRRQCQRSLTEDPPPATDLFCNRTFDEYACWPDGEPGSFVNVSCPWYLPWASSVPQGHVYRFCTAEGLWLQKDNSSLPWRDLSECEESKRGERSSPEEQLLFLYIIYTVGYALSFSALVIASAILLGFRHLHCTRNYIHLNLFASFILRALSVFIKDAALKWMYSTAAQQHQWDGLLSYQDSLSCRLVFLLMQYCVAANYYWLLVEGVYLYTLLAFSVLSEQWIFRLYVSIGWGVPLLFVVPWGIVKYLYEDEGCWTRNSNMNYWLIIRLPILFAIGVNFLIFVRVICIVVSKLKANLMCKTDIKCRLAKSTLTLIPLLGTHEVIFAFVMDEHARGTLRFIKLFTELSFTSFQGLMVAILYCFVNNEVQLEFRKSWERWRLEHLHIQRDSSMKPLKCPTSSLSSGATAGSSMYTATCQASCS
In short: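 Cells were resuspended in assay buffer at batch-optimized density, typically 1×10^5 cells/mL for hGLP-1R and 2×10^5 cells/mL for hGCGR. After 30 min incubation at room temperature with compound, cAMP was measured by two-step HTRF. EC50 values came from 4-parameter logistic fits of % Delta F.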

[2] = test system: GLP-1R knockout (KO) mice; test: Glucose change in GLP-1R knockout mice; format: in vivo, mouse; conditions: GLP-1R KO mice, s.c., 120 min vs 0 min, somatostatin pretreatment (octreotide) 30 min prior to cpd
In short: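 GLP-1R knockout mice (n=4-8/group, sorted by body weight) were fasted 2 h, and in some studies pretreated with octreotide 10 mg/kg 30 min before peptide injection. Mice were reused up to 3 times with at least 1-week wash-out.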

[3] = molecular target: T1, recombinant Neprilysin (Homo sapiens, UniProt P08473); test: Proteolytic resistance to neprilysin; format: in vitro ADME; conditions: pH 8.3
T1 construct: purchased R&D Systems 1182-ZNC-010
T1 sequence (P08473 52-750 limits assumed): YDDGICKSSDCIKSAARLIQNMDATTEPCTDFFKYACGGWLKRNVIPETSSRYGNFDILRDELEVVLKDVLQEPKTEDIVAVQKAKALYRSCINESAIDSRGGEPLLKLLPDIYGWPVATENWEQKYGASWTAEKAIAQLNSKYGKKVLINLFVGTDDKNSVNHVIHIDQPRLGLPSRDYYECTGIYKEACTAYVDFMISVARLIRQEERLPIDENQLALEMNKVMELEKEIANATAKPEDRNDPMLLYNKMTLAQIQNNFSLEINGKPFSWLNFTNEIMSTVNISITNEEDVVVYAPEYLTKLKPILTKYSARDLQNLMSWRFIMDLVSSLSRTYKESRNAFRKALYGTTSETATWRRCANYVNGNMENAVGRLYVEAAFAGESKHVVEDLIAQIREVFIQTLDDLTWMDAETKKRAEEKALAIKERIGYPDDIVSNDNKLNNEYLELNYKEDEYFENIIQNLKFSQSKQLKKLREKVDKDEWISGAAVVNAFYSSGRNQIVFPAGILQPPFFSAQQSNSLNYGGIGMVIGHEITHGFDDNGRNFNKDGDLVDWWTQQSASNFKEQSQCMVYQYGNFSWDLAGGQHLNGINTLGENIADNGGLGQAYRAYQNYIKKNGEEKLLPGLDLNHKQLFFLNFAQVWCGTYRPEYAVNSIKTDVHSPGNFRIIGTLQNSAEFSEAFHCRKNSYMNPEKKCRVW
In short: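 Peptide stock (~250 μM) mixed 1:1 with neprilysin stock (100 μg/mL) in Tris/NaCl/NaHCO3 buffer, pH 8.3, at 37° C. Aliquots at 0, 30 min, 1, 2, 4, 24 h quenched in TFA/acetonitrile. Intact peptide estimated by RP-HPLC peak area at 210 nm.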

[4] = Proteolytic resistance to FasSSIF/Pancreatin; format: in vitro ADME; conditions: simulated intestinal fluid
In short: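 Peptide (1.0 mg) in pre-warmed FasSSIF, proteolysis started with fresh FasSSIF/USP Pancreatin and held at 37 °C. Aliquots at 0, 5, 10, 15, 30 min quenched in 10% TFA; remaining intact peptide estimated by RP-HPLC peak area, UV 210 nm.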

[5] = Mouse acute food intake study; format: in vivo; conditions: male C57Bl/6 mice, s.c., dose 10 nmol/kg, cumulative food intake at 24 hr vs vehicle
In short: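 Peptide or vehicle went subcutaneously (5 mL/kg) to 6-8 h-fasted male C57Bl/6 mice shortly before the dark phase, with groups balanced on body weight and 24-hour intake. Cumulative food consumption was derived from 48 h of automated BioDaq monitoring with free food and water access.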

CC[C@H](C)[C@H](NC(=O)[C@H](Cc1c[nH]c2ccccc12)NC(=O)[C@H](CCC(=O)O)NC(=O)[C@@H](NC(=O)[C@](C)(Cc1ccccc1)NC(=O)[C@H](CC(=O)O)NC(=O)[C@H](CCC(N)=O)NC(=O)[C@H](C)NC(=O)[C@H](C)NC(=O)[C@H](CCCCNC(=O)CC[C@H](NC(=O)CCCCCCCCCCCCCCCCC(=O)O)C(=O)O)NC(=O)[C@H](CO)NC(=O)[C@H](CC(=O)O)NC(=O)[C@H](CC(C)C)NC(=O)[C@](C)(Cc1ccccc1)NC(=O)[C@H](CCCCN)NC(=O)[C@H](CO)NC(=O)[C@@H](NC(=O)[C@H](CC(=O)O)NC(=O)[C@H](CO)NC(=O)[C@@H](NC(=O)[C@](C)(Cc1ccccc1)NC(=O)[C@H](CO)NC(=O)CNC(=O)[C@H](Cc1c[nH]cn1)NC(=O)C(C)(C)NC(=O)[C@@H](N)Cc1c[nH]cn1)[C@@H](C)O)C(C)C)C(C)C)C(=O)N[C@@H](C)C(=O)N[C@@H](CC(N)=O)C(=O)N[C@H](C(N)=O)[C@@H](C)O [Peptide 7] (H-H[Aib]HGS[αMeF]TSDVSK[αMeF]LDSK([γGlu-C18 diacid])AAQD[αMeF]VEWIANT-NH2; N-terminus assumed)
EC50 ([1]; Table 6, peptides modified at position 17, cAMP in CHO hGLP-1R cells, geometric mean, read-out: hGLP-1R EC50): 0.0846 nM | % Relative Potency Ratio ([1]; Table 6, % GLP-1R activity relative to GLP-1 / % GlucR activity relative to glucagon): 0.7 | GLP-1R KO % glucose change 120 min ([2]; 1.5 nmol/kg): 80.8% | GLP-1R KO % glucose change 120 min ([2]; 5 nmol/kg): 152.9% | remaining at 0.5 h ([3]; isolated enzyme neprilysin): 100% | remaining at 2 h ([3]; isolated enzyme neprilysin): 100% | remaining at 4 h ([3]; isolated enzyme neprilysin): 97% | remaining at 24 h ([3]; isolated enzyme neprilysin): 84% | % intact peptide over time [3]: 100% | remaining at 5 min, 3.3 mg/mL [4]: 96% | remaining at 10 min, 3.3 mg/mL [4]: 98% | remaining at 0.25 h, 3.3 mg/mL [4]: 96% | remaining at 0.5 h, 3.3 mg/mL [4]: 94% | 24 hr % Vehicle Food Intake [5]: 55.0%
